Read-outs that look alike come from different tables or passages of the source.
Columns and labels:
calcium channel = conditions: literature comparison for D-30; cited from earlier work
[1] = test system: guinea pig ileal longitudinal smooth muscle; assay: Calcium channel agonist testing: contractile response of guinea pig ileal longitudinal smooth muscle, compound given in place of CD; format: cell-based; conditions: for EC50: Cavia porcellus, given in the place of CD, no calcium antagonist added, read-out: effective dose producing 50% of the maximum contractile response
Experimental: Calcium channel antagonist activity was determined as the concentration required to produce 50% inhibition of the muscarinic receptor-mediated Ca^2+ -dependent contraction of guinea pig ileal longitudinal smooth muscle assay (C. Triggle, V. Swamy and D. Triggle, Can. J. Physiol. Pharmacol., 1979, 57, 804). Male albino guinea pigs (body weight 300-450 g) were sacrificed by decapitation. The intestine was removed above the ileo-caecal junction. Longitudinal smooth muscle segments of 2 cm length were mounted under a resting tension of 300-400 mg. The segments were maintained at 37° C. in a 10 mL jacketed organ bath containing oxygenated (100% O2) physiological saline solution of the following composition (mM): NaCl: 137; CaCl2 : 2.6; KCl: 5.9; MgCl2 : 1.2; glucose: 11.9; buffered by Hepes-NaOH to pH 7.4. The muscles were equilibrated for 1 h with a solution change every 15 min. Two successive control contractions were elicited at 15 min intervals with 5×10^-7 M cis-2-methyl- 4-dimethylaminomethyl-1,3-dioxolane methiodide (CD). The isometric contractions were recorded with a force displacement transducer (FT 03C) on a GRASS physiograph. The means of the two contractile responses was taken as the 100% value for the tonic (slow) component of the response. The muscle was washed with Hepes saline solution and was allowed to re-equilibrate. The calcium antagonist (test compound) was added ten min before the dose-response for CD was determined. The drug-induced inhibition of contraction was expressed as percent of control. The ID50 values were graphically determined from the concentration-response curves. The test results are shown in Table 7, the compounds testing being compared to Nifedipine (TM).
(§1) A modified protocol, used for testing calcium channel antagonists (vide supra), was used to determine the concentration at which D-30 produced 50% of the maximum contractile response. D-30 was administered in the place of CD and the dose-response curve was determined. A calcium antagonist was not added during the experiment. […] Similarly, the effective dose of the isomeric D-31 producing 50% of the maximum contractile response was 6.6×10^-5 M. Both D-30 and D-31 increased the guinea pig right atria heart rate by 30%.

guinea pig right atria = assay: Guinea pig right atria heart rate; format: cell-based
Experimental: as §1

[2] = test system: guinea pig ileal longitudinal smooth muscle; assay: Calcium channel antagonist testing: inhibition of muscarinic receptor-mediated Ca2+-dependent contraction (response to CD) of guinea pig ileal longitudinal smooth muscle; format: cell-based; conditions: for IC50: 50% inhibition of tonic contraction to CD 5×10^-7 M, compound added 10 min before CD, 37° C., pH 7.4, read-out: Calcium channel antagonist act., inhib. act. on contractile response to CD, ID50; for calcium channel antagonist activity, comparison to Nifedipine (TM): conclusion from Table 7
Experimental: Male albino guinea pigs (body weight 300-450 g) were sacrificed by decapitation. The intestine was removed above the ileo-caecal junction. Longitudinal smooth muscle segments of 2 cm length were mounted under a resting tension of 300-400 mg. […] The muscles were equilibrated for 1 h with a solution change every 15 min. Two successive control contractions were elicited at 15 min intervals with 5×10^-7 M cis-2-methyl- 4-dimethylaminomethyl-1,3-dioxolane methiodide (CD). The isometric contractions were recorded with a force displacement transducer (FT 03C) on a GRASS physiograph. The means of the two contractile responses was taken as the 100% value for the tonic (slow) component of the response. The muscle was washed with Hepes saline solution and was allowed to re-equilibrate. The calcium antagonist (test compound) was added ten min before the dose-response for CD was determined. The drug-induced inhibition of contraction was expressed as percent of control. The ID50 values were graphically determined from the concentration-response curves.

IC50 ([2]; Cavia porcellus)	Compound	calcium channel antagonist activity, comparison to Nifedipine (TM) [2]	also measured
–	COC(=O)C1=C(C)NC(C)=C([N+](=O)[O-])C1c1ccccc1C(F)(F)F (stereo not shown) [Bay K 8644]	–	calcium channel agonist activity of reference compounds (calcium channel): calcium channel agonist which promotes calcium entry into cells
–	COC(=O)C1=C(C)NC(C)=C([N+](=O)[O-])C1c1cccnc1 [Compound D-30, methyl 2,6-dimethyl-3-nitro-4-(3'-pyridyl)-1,4-dihydropyridine-5-carboxylate]	–	EC50 [1]: 94 µM; calcium channel agonist activity ([1]; conclusion from contractile response): calcium channel agonist which promotes calcium entry into cells; muscle contraction ([1]; tested using the calcium channel antagonist testing procedure): caused muscle contraction; increase of guinea pig right atria heart rate (guinea pig right atria): 30%
–	COC(=O)C1=C(C)NC(C)=C([N+](=O)[O-])C1c1ccncc1 [Compound D-31, methyl 2,6-dimethyl-3-nitro-4-(4'-pyridyl)-1,4-dihydropyridine-5-carboxylate]	–	EC50 [1]: 66 µM; increase of guinea pig right atria heart rate (guinea pig right atria): 30%
–	CCOC(=O)C1=C(C)NC2=C(C(=O)OC2)C1c1ccccc1OC(F)F (stereo not shown) [CGP 28392]	–	calcium channel agonist activity of reference compounds (calcium channel): calcium channel agonist which promotes calcium entry into cells
87.7 µM	COC(=O)C1=C(C)NC(C)=C(C#N)C1c1ccncc1 [Compound D-26]	–	–
–	3-Methyl 5-cyano-2,6-dimethyl-4-{3'-[N--methoxycarbonyl-1',2'-(1',6'-)dihydropyridyl]}-1,4-dihydropyridine-3-carboxylate [Compound D-46]	–	IC50 [2]: 52 µM
–	3-Isobutyl-5-methyl 2,6-dimethyl-4-{3'-[N--phenoxycarbonyl-1',2'-(1',6'-)dihydropyridyl]}-1,4-dihydropyridine-3,5-dicarboxylate [Compound D-44]	active calcium channel antagonists, being comparable to Nifedipine (TM)	IC50 [2]: 0.045 µM
2.52 µM	COC(=O)C1=C(C)N(C)C(C)C(C(=O)OC)=C1c1ccccc1[N+](=O)[O-] (stereo not shown) [Compound S-6, Dimethyl 1,2,6-trimethyl-4-(2-nitrophenyl)-1,2-dihydropyridine-3,5-dicarboxylate]	–	–
0.041 µM	COC(=O)C1=C(C)NC(C)=C(C(=O)OCC(C)C)C1c1ccccn1 [Compound D-3, 3-Isobutyl-5-methyl 2,6-dimethyl-4-(2'-pyridyl)-1,4-dihydropyridine-3,5-dicarboxylate]	active calcium channel antagonists, being comparable to Nifedipine (TM)	–
43.6 µM	COC(=O)C1=C(C)NC(C)=C(C(=O)OCCN(C)C)C1c1ccccn1 [Compound D-4, 3-[2-(N,N--dimethylamino)ethyl]-5-methyl 2,6-dimethyl-4-(2'-pyridyl)-1,4-dihydropyridine-3,5-dicarboxylate]	–	–
–	Diisobutyl 2,6-dimethyl-4-{3'-[N--methoxycarbonyl-1',2'(1',6'-)dihydropyridyl]}-1,4-dihydropyridine-3,5-dicarboxylate [Compound D-35]	active calcium channel antagonists, being comparable to Nifedipine (TM)	IC50 [2]: 0.771 µM
0.0956 µM	COC(=O)C1=C(C)NC(C)=C(C(=O)OC(C)C)C1c1ccccn1 [Compound D-2, 3-Isopropyl-5-methyl 2,6-dimethyl-4-(2'-pyridyl)-1,4-dihydropyridine-3,5-dicarboxylate]	active calcium channel antagonists, being comparable to Nifedipine (TM)	–
3.43 µM	COC(=O)C1=C(C)NC(C)=C(C(=O)OC)C1C1=CCCN(C)C1 [Compound D-68, Dimethyl 2,6-dimethyl-4-[5'-(N--methyl-1',2',3',6'-tetrahydropyridyl)]-1,4-dihydropyridine-3,5-dicarboxylate]	–	–
3.5 µM	COC(=O)C1=C(C)N(C)C(C)C(C(=O)OC)=C1c1cccc(C(F)(F)F)c1 (stereo not shown) [Compound S-2, Dimethyl 1,2,6-trimethyl-4-(3-trifluoromethylphenyl)-1,2-dihydropyridine-3,5-dicarboxylate]	–	–
–	Diethyl 2,6-dimethyl-4-{3'-[N--t-butoxycarbonyl-1',2'-(1',6'-)dihydropyridyl]}-1,4-dihydropyridine-3,5-dicarboxylate [Compound D-40]	active calcium channel antagonists, being comparable to Nifedipine (TM)	IC50 [2]: 0.672 µM
–	Diisopropyl 2,6-dimethyl-4-{3'-[N--methoxycarbonyl-1',2'-(1',6'-)dihydropyridyl]}-1,4-dihydropyridine-3,5-dicarboxylate [Compound D-34]	active calcium channel antagonists, being comparable to Nifedipine (TM)	IC50 [2]: 0.131 µM
0.26 µM	CC1=C(C(=O)OC(C)C)C(c2cccnc2)C(C(=O)OC(C)C)=C(C)N1 [Compound D-18]	active calcium channel antagonists, being comparable to Nifedipine (TM)	–
0.58 µM	CC1=C(C(=O)OCC(C)C)C(c2ccncc2)C(C(=O)OCC(C)C)=C(C)N1 [Compound D-23, 3,5-Diisobutyl 2,6-dimethyl-4-(4'-pyridyl)-1,4-dihydropyridine-3,5-dicarboxylate]	active calcium channel antagonists, being comparable to Nifedipine (TM)	–
20 µM	COC(=O)C1=C(c2ccccc2[N+](=O)[O-])C(C(=O)OC(C)C)=C(C)N(C)C1C (stereo not shown) [Compound W-2, 3-Methyl-5-isopropyl 1,2,6-trimethyl-4-(2-nitrophenyl)-1,2-dihydropyridine-3,5-dicarboxylate]	–	–

Source: patent US4771057A, “Reduced pyridyl derivatives with cardiovascular regulating properties” (University of Alberta, priority 1986, dated 1988)
